According to article PMC4870556, “Triazole resistance mediated by mutations of a conserved active site tyrosine in fungal lanosterol 14α-demethylase” (Scientific Reports, 2016):
Where two headings read alike, the source gives them in different places.

Columns and labels:
[1] = system: AD3ΔScErg11p (strain overexpressing wild type ScErg11p6 × His); assay: Broth microdilution MIC80, strain overexpressing wild type enzyme; assay type: cell-based; conditions: Saccharomyces cerevisiae, 48 h, pH 6.8
Method: (§1) Susceptibilities to triazole drugs of S. cerevisiae AD3Δ strains overexpressing Erg11p6 × His Y140F/H, but with the native ERG11 deleted, were measured as liquid MIC80 values (Supplementary Table S2). Overexpression of ScErg11p6 × His Y140F in the AD3ΔScErg11p_Y140F strain conferred 2-fold lower susceptibility to FLC than the strain overexpressing wild type ScErg11p6 × His i.e. MIC80 of 4.0 μg/ml and 2.1 μg/ml, respectively. The same mutant conferred a 1.7-fold reduction in susceptibility to VCZ. The MIC80 values were 0.42 μg/ml for the strain overexpressing ScErg11p6 × His Y140F and 0.25 μg/ml for the strain overexpressing wild type ScErg11p6 × His.
The S. cerevisiae AD2Δ host was used to create the strains used in this study. The strain was made by deletion of the HIS1 gene from the previously described ADΔ[49] strain. ADΔ and AD2Δ lack 7 major ATP-binding cassette transporters and the PDR3 gene. Both strains have the gain-of function pdr1–3 mutation in the PDR1 transcriptional regulator gene to provide constitutive overexpression of ScErg11p6 × His from the PDR5 locus. Yeast strains were grown on YPD medium: 1% (wt/vol) Bacto-yeast extract (BD Difco™ Laboratories Inc, Franklin Lakes, NJ), 2% (wt/vol) Bacto-peptone (BD Difco™) and 2% (wt/vol) glucose. Synthetic defined (SD) medium was used for selection of transformants. […]
(§2) The susceptibilities of strains overexpressing wild type ScErg11p6 × His and ScErg11p6 × His Y140F/H to triazole drugs were measured as MIC80 values using broth microdilution assays. […] MIC80s to FLC, ITC and VCZ were determined in 96-well microtiter plates using SD buffered to pH 6.8 instead of RPMI[50]. […] Cell growth was assessed by measuring the OD600nm of wells using a BioTek Synergy™ 2 multi-mode plate reader (BioTek Instruments, Vermont, USA). Each MIC80 was determined using triplicate measurements for three clones of each strain in three separate experiments.

[2] = biological target: T1, ScErg11p6 × His Y140F (Saccharomyces cerevisiae, UniProt P10614, Y140F); assay: Type II difference spectra triazole binding to affinity purified Y140F mutant enzyme; conditions: for Hill number / IC50 / Kd: Y140F enzyme 1 μM; for IC50 / Kd: Hill equation fit; for IC50: IC50 value is denoted as [Azole]0.5; for Kd: standard error in brackets; for ΔAmax of type II difference spectra: Y140F enzyme, Ni-NTA affinity purified
T1 construct: full-length Saccharomyces cerevisiae hexahistidine-tagged Erg11p (ScErg11p6 × His); made in house; host or cells: Saccharomyces cerevisiae strain AD3ΔScErg11_Y140F (native ERG11 deleted)
Method: (§3) Ni-NTA affinity purified mutant and wild type ScErg11p6 × His preparations (1 μM) were used to detect and quantitate type II azole binding. The spectral shift of the Soret peak from 417 nm to 421–424 nm in cytochrome P450s is also detected by the type II difference spectra. This change is associated with the replacement of a water molecule coordinated to the heme iron with the azole heterocycle. Type II difference spectra were obtained for FLC, VCZ, ITC and PCZ binding to both mutant enzymes. The binding of FLC is shown as an example (Fig. 2b). The type II difference spectra for the mutant enzymes were less intense than for the wild type enzyme. They gave 2–3-fold smaller differences in absorbance (ΔAmax), with peaks shifted from 428 nm for wild type enzyme to 424–425 nm for the mutant enzymes plus less well-defined troughs between 406–410 nm (Supplementary Table S3). […] These values indicate tight binding for each drug tested.
(§4) The concentration of functional cytochrome P450 for drug binding studies was determined using the carbon monoxide binding spectra according to the protocol described by Guengerich et al.[33]. Affinity purified ScErg11p6 × His used for spectroscopic assays was eluted using affinity purification buffer containing 50 mM L-histidine instead of imidazole. L-histidine was removed from the sample by washing the enzyme with solubilisation buffer containing 16 mM DM using 50 kDa molecular-weight cut-off Amicon Ultra-4 centrifugal filters (Merck Millipore Ltd, Cork, Ireland). The removal of L-histidine was checked by taking the absolute spectra of the sample using the Ultrospec™ 6300 pro UV/Visible spectrophotometer. The heme peak for wild type protein with no ligand was at ~417 nm. With L-histidine bound the peak was detected at ~420 nm. Enzyme concentration was determined by saturating the sample cuvette with CO gas prior to the addition of sodium dithionite. The reference cuvette containing the same amount of enzyme was treated with sodium dithionite only. The P450 concentration was determined by measuring the difference in absorbance between 446 and 490 nm and using the extinction coefficient of 91 mM^−1 cm^−1 [58]. Absorption spectra were recorded with a Cary 1 Bio UV-visible spectrophotometer using 10 mm path UV transparent plastic cuvettes (GE Healthcare Life Sciences, UK). Difference spectra were measured using 1 μM ScErg11p6 × His wild type or Y140F/H enzyme titrated with the triazole drugs ITC, PCZ, VCZ and FLC. Triazole drugs dissolved in DMSO were added to the sample cuvette, with the same amount of DMSO added to the reference cuvette. The total amount of DMSO was <2% of the total volume in the cuvette. Difference spectra between 350–500 nm were recorded and the trough-peak absorbance changes were used to plot binding curves. The dissociation constant Kd for type II binding of triazole drugs was calculated using GraphPad Prism 6 Software (GraphPad Prism, San Diego, CA) by applying the Hill equation using the formula ΔA = ΔAmax [Azole]^n/([Azole]^n + Kd^n), with ΔAmax being the maximum change in absorbance and [Azole] the azole concentration.

[3] = biological target: T2, wild type ScErg11p6 × His (Saccharomyces cerevisiae, UniProt P10614); assay: Type II difference spectra triazole binding to affinity purified wild type enzyme; conditions: for Hill number / IC50 / Kd: wild-type enzyme 1 μM; for IC50 / Kd: Hill equation fit; for IC50: IC50 value is denoted as [Azole]0.5; for Kd: standard error in brackets; for ΔAmax of type II difference spectra: wild-type enzyme, Ni-NTA affinity purified
T2 construct: full-length Saccharomyces cerevisiae hexahistidine-tagged Erg11p (ScErg11p6 × His); made in house; host or cells: Saccharomyces cerevisiae strain AD3ΔScErg11p (overexpression from the PDR5 locus, native ERG11 deleted)
Method: as §3, §4

[4] = system: AD3ΔScErg11p_Y140F; assay: Broth microdilution MIC80, strain overexpressing Y140F enzyme; assay type: cell-based, Saccharomyces cerevisiae; conditions: for fold lower susceptibility (MIC80) than strain overexpressing wild type ScErg11p6 × His: Y140F strain vs wild type strain
Method: as §1
The S. cerevisiae AD2Δ host was used to create the strains used in this study. The strain was made by deletion of the HIS1 gene from the previously described ADΔ[49] strain. ADΔ and AD2Δ lack 7 major ATP-binding cassette transporters and the PDR3 gene. Both strains have the gain-of function pdr1–3 mutation in the PDR1 transcriptional regulator gene to provide constitutive overexpression of ScErg11p6 × His from the PDR5 locus. Yeast strains were grown on YPD medium: 1% (wt/vol) Bacto-yeast extract (BD Difco™ Laboratories Inc, Franklin Lakes, NJ), 2% (wt/vol) Bacto-peptone (BD Difco™) and 2% (wt/vol) glucose. Synthetic defined (SD) medium was used for selection of transformants. It contained 2% (wt/vol) glucose, 0.67% (wt/vol) yeast nitrogen base without amino acids (BD Difco™), 2% (wt/vol) agar (Oxoid Ltd., Hampshire, UK) and either uracil drop-out (Qbiogene, Irvine, CA) or histidine drop-out (Formedium™, Norfolk, UK) complete supplement mixture. Liquid SD media with complete supplement mixture (Formedium™) containing 10 mM MES and 20 mM HEPES buffered with TRIS to pH 6.8 was used for MIC80 determinations.
The susceptibilities of strains overexpressing wild type ScErg11p6 × His and ScErg11p6 × His Y140F/H to triazole drugs were measured as MIC80 values using broth microdilution assays. The MIC80s were defined as 80% growth inhibition compared to no drug controls because triazole drugs are fungistatic rather than fungicidal and can give trailing growth. MIC80s to FLC, ITC and VCZ were determined in 96-well microtiter plates using SD buffered to pH 6.8 instead of RPMI[50]. Cells were seeded at OD600nm = 0.005 (1.5 × 10^4 CFU) and the plates were incubated in 30 °C with shaking at 200 rpm for 48 hrs. Cell growth was assessed by measuring the OD600nm of wells using a BioTek Synergy™ 2 multi-mode plate reader (BioTek Instruments, Vermont, USA). Each MIC80 was determined using triplicate measurements for three clones of each strain in three separate experiments.

[5] = biological target: T3, ScErg11p6 × His Y140H (Saccharomyces cerevisiae, UniProt P10614, Y140H); assay: Type II difference spectra triazole binding to affinity purified Y140H mutant enzyme; conditions: for Hill number / IC50 / Kd: Y140H enzyme 1 μM; for IC50 / Kd: Hill equation fit; for IC50: IC50 value is denoted as [Azole]0.5; for Kd: standard error in brackets; for ΔAmax of type II difference spectra: Y140H enzyme, Ni-NTA affinity purified
T3 construct: full-length Saccharomyces cerevisiae hexahistidine-tagged Erg11p (ScErg11p6 × His); made in house; host or cells: Saccharomyces cerevisiae strain AD3ΔScErg11_Y140H (native ERG11 deleted)
Method: as §3, §4

[6] = system: AD3ΔScErg11p_Y140H; assay: Broth microdilution MIC80, strain overexpressing Y140H enzyme; assay type: cell-based; conditions: Saccharomyces cerevisiae, 48 h, pH 6.8, 80% growth inhibition, SD medium pH 6.8, 30 °C, native ERG11 deleted
Method: as §1
The S. cerevisiae AD2Δ host was used to create the strains used in this study. The strain was made by deletion of the HIS1 gene from the previously described ADΔ[49] strain. […]
as §2

[7] = system: AfCYP51B; design: method as in PMID 26459890; conditions: membrane preparations, enzyme heterologously expressed in E. coli; cited from earlier work
[8] = biological target: AfCYP51B; design: method as in PMID 26459890; conditions: type II binding, Ni-NTA affinity purified enzyme; cited from earlier work
[9] = biological target: AfCYP51A; design: method as in PMID 26459890; conditions: type II binding, cited from earlier work
[10] = system: AfCYP51A; conditions: cited from earlier work
[11] = system: C. albicans Erg11p (CaErg11p) Y132F/H; conditions: Y132F/H mutations detected in clinical isolates; cited from earlier work
[12] = Saccharomyces cerevisiae, 48 h, pH 6.8

T3 sequence (P10614 whole entry Y140H): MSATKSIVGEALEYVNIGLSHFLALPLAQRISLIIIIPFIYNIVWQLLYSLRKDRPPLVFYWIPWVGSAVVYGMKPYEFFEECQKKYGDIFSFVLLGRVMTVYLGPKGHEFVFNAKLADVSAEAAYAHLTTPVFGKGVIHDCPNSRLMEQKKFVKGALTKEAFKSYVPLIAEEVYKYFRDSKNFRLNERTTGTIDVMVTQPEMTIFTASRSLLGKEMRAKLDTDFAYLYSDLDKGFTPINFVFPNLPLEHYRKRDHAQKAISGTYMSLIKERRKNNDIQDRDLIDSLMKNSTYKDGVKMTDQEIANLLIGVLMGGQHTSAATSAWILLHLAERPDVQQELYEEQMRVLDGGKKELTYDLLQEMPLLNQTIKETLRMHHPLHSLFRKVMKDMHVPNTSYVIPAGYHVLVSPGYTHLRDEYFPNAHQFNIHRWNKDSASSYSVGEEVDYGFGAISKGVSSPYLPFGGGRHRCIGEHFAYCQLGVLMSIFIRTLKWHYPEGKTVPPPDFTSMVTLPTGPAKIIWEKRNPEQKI
T1 sequence (P10614 whole entry Y140F): as the sequence (P10614 whole entry Y140H) above, with H140F counted along it
T2 sequence (P10614 whole entry): as the sequence (P10614 whole entry Y140H) above, with H140Y counted along it

## CCC(C)n1ncn(-c2ccc(N3CCN(c4ccc(OCC5COC(Cn6cncn6)(c6ccc(Cl)cc6Cl)O5)cc4)CC3)cc2)c1=O (stereo not drawn) [ITC, itraconazole]
[1]
  MIC80: 0.105 µg/mL
[2]
  Hill number: 1.83
  IC50: 330 nM
  Kd: 130 nM
  ΔAmax of type II difference spectra: 0.014
[3]
  Hill number: 1.6
  IC50: 280 nM
  Kd: 123 nM
  ΔAmax of type II difference spectra: 0.037
[4]; 80% growth inhibition, SD medium pH 6.8, 30 °C, 48 hrs, native ERG11 deleted
  MIC80: 0.09 µg/mL
[4]; Saccharomyces cerevisiae, 80% growth inhibition, SD medium pH 6.8, 30 °C, 48 hrs, native ERG11 deleted, read-out: MIC80
  MIC80: 0.09 µg/mL
[5]
  Hill number: 1.48
  IC50: 250 nM
  Kd: 130 nM
  ΔAmax of type II difference spectra: 0.016

## C[C@@H](c1ncncc1F)[C@](O)(Cn1cncn1)c1ccc(F)cc1F [VCZ, voriconazole]
[6]
  MIC80: 0.29 µg/mL
[1]
  MIC80: 0.25 µg/mL
[2]
  Hill number: 2.60
  IC50: 270 nM
  Kd: 30 nM
  ΔAmax of type II difference spectra: 0.019
[3]
  Hill number: 2.7
  IC50: 400 nM
  Kd: 82 nM
  ΔAmax of type II difference spectra: 0.051
[4]; [12]
  MIC80: 0.42 µg/mL
[4]
  fold lower susceptibility (MIC80) than strain overexpressing wild type ScErg11p6 × His: 1.7 fold
[5]
  Hill number: 1.23
  IC50: 290 nM
  Kd: 220 nM
  ΔAmax of type II difference spectra: 0.018

## CC[C@@H]([C@H](C)O)n1ncn(-c2ccc(N3CCN(c4ccc(OC[C@@H]5CO[C@@](Cn6cncn6)(c6ccc(F)cc6F)C5)cc4)CC3)cc2)c1=O [PCZ, posaconazole]
[2]
  Hill number: 1.57
  IC50: 290 nM
  Kd: 150 nM
  ΔAmax of type II difference spectra: 0.016
[3]
  Hill number: 2.2
  IC50: 320 nM
  Kd: 78 nM
  ΔAmax of type II difference spectra: 0.031
[5]
  Hill number: 1.57
  IC50: 230 nM
  Kd: 100 nM
  ΔAmax of type II difference spectra: 0.016

## OC(Cn1cncn1)(Cn1cncn1)c1ccc(F)cc1F [FLC, fluconazole]
[6]
  MIC80: 3.4 µg/mL
[1]
  MIC80: 2.1 µg/mL
[7]
  IC50: 500 nM
[2]
  Hill number: 1.86
  IC50: 330 nM
  Kd: 130 nM
  ΔAmax of type II difference spectra: 0.023
[8]
  Kd: 4000 nM
[9]; Ni-NTA affinity purified enzyme
  Kd: 12000 nM
[9]; Ni-NTA affinity purified enzymes
  fold difference in Kd values AfCYP51A vs AfCYP51B: 3 fold
[3]
  Hill number: 3.0
  IC50: 430 nM
  Kd: 74 nM
  ΔAmax of type II difference spectra: 0.048
[10]; membrane preparations, enzyme heterologously expressed in E. coli
  IC50: 17000 nM
[10]; reconstituted membrane assay
  fold higher IC50 for AfCYP51A compared to AfCYP51B: 34 fold
[11]
  fold increase in resistance: 4 fold
[4]; [12]
  MIC80: 4 µg/mL
[4]
  fold lower susceptibility (MIC80) than strain overexpressing wild type ScErg11p6 × His: 2 fold
[5]
  Hill number: 1.68
  IC50: 270 nM
  Kd: 110 nM
  ΔAmax of type II difference spectra: 0.016
